Test results: patent US20110245200A1, “USE OF IDRABI[…] DECREASING THE INCIDENCE OF BLEEDINGS DURING AN ANTI[…]” (SANOFI-AVENTIS, priority 2008, published 2011)

How the values were obtained:
activated factor X = assay: EQUINOX clinical trial: bioequipotency assessed by anti-Xa activity; type: in vivo, human; conditions: equimolar doses
Excerpt: (§1) This trial was aimed at studying the bioequipotency of idrabiotaparinux and idraparinux, as assessed by anti-Xa activity at month 6, in patients with acute symptomatic DVT, as well as studying the ability to neutralize idrabiotaparinux with avidin, and also at documenting the safety and efficacy of idrabiotaparinux and idraparinux.

[1] = test system: patients with acute symptomatic DVT; assay: EQUINOX clinical trial: bleeding (safety) and efficacy over 6 months of treatment; type: in vivo, human; conditions: for Kaplan-Meier cumulative incidence of first bleeding (any bleeding), comparison of the two groups: FIG. 1; for Major bleeding, number of patients [n] / Any bleeding (clinically relevant major or non-major), % of patients / Any bleeding (clinically relevant major or non-major), number of patients [n] / Major bleeding, % of patients (incidence): first study drug administration up to D182; for Any bleeding (clinically relevant major or non-major), % of patients: crude rate; for Any bleeding (clinically relevant major or non-major), number of patients [n]: once-weekly s.c., equimolar doses (idrabiotaparinux 3.0 mg, idraparinux 2.5 mg); for Major bleeding, % of patients (incidence): p=0.006 Fisher's exact test
Excerpt: as §1
The study was an international, multi-center, double-blind, randomized, with two parallel groups phase III study, in patients treated for acute symptomatic DVT. In order to get 600 patients (300 patients in each treatment group) who completed the 6-month treatment with idrabiotaparinux or idraparinux, 700 patients with confirmed symptomatic DVT of the lower limbs were to be randomized to either idrabiotaparinux (n=350 patients) or idraparinux (n=350 patients). 300 completed patients per group, with a 6-month extent of exposure to the drug, were considered as an adequate sample size to assess clinical safety of idrabiotaparinux, i.e. to characterize the pattern of adverse events over time.
During the study period, patients were treated with equimolar doses of idrabiotaparinux (3.0 mg) or of idraparinux (2.5 mg). The drug was injected subcutaneously, once-weekly.
For safety, the main endpoints were clinically relevant bleeding (major or clinically relevant non-major), as classified by the Central Independent Adjudication Committee (hereafter “CIAC”), and death (cause of death validated by the CIAC).
The safety population consisted of all randomized patients who took at least one dose of study medication (all treated population). Patients were analyzed according to the treatment they actually received.
The main safety analysis period was the randomized treatment period, defined as the period from first study drug administration (taken as Day 1) up to Day 182 (hereafter “D182”).
The numbers and percentages of patients with clinically relevant bleeding within 6 months (from first study drug administration up to Day 182) were presented by treatment group. The rate of any clinically relevant bleeding was calculated by dividing the number of patients with this event by the number of treated patients (crude rate). Bleeding rate estimates and exact 95% confidence interval (hereafter “C1”) were presented by treatment group. Cumulative incidences of any clinically relevant bleeding during the on-treatment period were also described by treatment group using the Kaplan-Meier method. Time to first clinically relevant bleeding was censored at the minimum day between: Day 182; the day of last study drug administration+7 days; the day of death; and the day of last clinical event assessment giving any information on bleeding symptoms.
The numbers and percentages (crude rates) of patients with major bleedings within 6 months (from first study drug administration up to Day 182) were also presented by treatment group. The criteria used by the CIAC to classify major bleedings were summarized according to the worst severity. The order of severity was: fatal bleeding, including fatal intra-cranial hemorrhage (hereafter “ICH”), non-fatal bleeding within a critical organ, non-fatal bleeding with fall in hemoglobin or transfusion.

patients with DVT [2] = assay: Putative indirect comparison of idrabiotaparinux with standard treatment (EQUINOX OR times van Gogh DVT OR); type: in vivo, human; conditions: 95% CI: 0.061-1.020; p value 0.053; calculated as 0.200 times 1.245
Protocol: For major bleedings, the putative odds ratio (OR) comparing idrabiotaparinux to the standard treatment (OR=0.249 [95% CI: 0.061-1.020]) yielded a p value of 0.053; this putative OR was calculated as OR of idrabiotaparinux versus idraparinux in EQUINOX (0.200) times OR of idraparinux versus standard treatment in van Gogh DVT (1.245).

patients with DVT [3] = assay: VAN GOGH clinical trial (DVT): bleeding incidence, idraparinux versus standard therapy; type: in vivo, human
Excerpt: According to the results published in N. Engl.

patients with DVT [4] = conditions: 6 months after start of treatment (Day 183), N. Engl. J. Med., 2007, 357, 1094-104; cited from earlier work
[5] = major bleedings up to D182 by adjudication criterion, all treated population

## CO[C@H]1O[C@H](COS(=O)(=O)O)[C@@H](O[C@@H]2O[C@@H](C(=O)O)[C@@H](O[C@H]3O[C@H](COS(=O)(=O)O)[C@@H](O[C@@H]4O[C@H](C(=O)O)[C@@H](O[C@H]5O[C@H](COS(=O)(=O)O)[C@@H](OC)[C@H](OC)[C@H]5NC(=O)CCCCCNC(=O)CCCC[C@@H]5SC[C@@H]6NC(=O)N[C@@H]65)[C@H](OC)[C@H]4OC)[C@H](OS(=O)(=O)O)[C@H]3OS(=O)(=O)O)[C@H](OC)[C@H]2OC)[C@H](OS(=O)(=O)O)[C@H]1OS(=O)(=O)O [Idrabiotaparinux, idrabiotaparinux]
Activated factor X
  anti-activated factor X pharmacological activity (anti-Xa activity) compared with idraparinux: same
[1]; EQUINOX
  Odds ratio for major bleedings, idrabiotaparinux versus idraparinux: 0.200
[1]; on-treatment period, at month 3
  Kaplan-Meier cumulative incidence of first bleeding (any bleeding), comparison of the two groups: comparable
[1]; FIG. 2, on-treatment period, after month 2
  Kaplan-Meier cumulative incidence of first major bleeding, comparison of the two groups: marked difference in major bleeding incidences between the two treatment groups, in favour of the idrabiotaparinux group
[1]; all treated population
  Major bleeding, number of patients [n]: 3
  Any bleeding (clinically relevant major or non-major), % of patients: 5.2%
  Any bleeding (clinically relevant major or non-major), number of patients [n]: 20
  Major bleeding, % of patients (incidence): 0.8%
[1]; [5]
  Fatal bleeding: Gastrointestinal, number of patients [n]: 0
  Fatal bleeding: Intracranial, number of patients [n]: 0
  Fatal bleeding: Other, % of patients: 0.3%
  Fatal bleeding: Other, number of patients [n]: 1
  Non-fatal bleeding associated with a fall in hemoglobin >=2 g/dL and/or leading to a transfusion >=2 units of blood, % of patients: 0.5%
  Non-fatal bleeding associated with a fall in hemoglobin >=2 g/dL and/or leading to a transfusion >=2 units of blood, number of patients [n]: 2
  Non-fatal bleeding into a critical organ: Intracranial, number of patients [n]: 0
  Non-fatal bleeding into a critical organ: Other, number of patients [n]: 0
  Non-fatal bleeding into a critical organ: Pericardial, number of patients [n]: 0
  Non-fatal bleeding into a critical organ: Retroperitoneal, number of patients [n]: 0
[1]; major bleedings up to D182 by adjudication criterion, all treated population, listed as idrabiotaparinux
  Fatal bleeding: Other, number of patients [n]: One
[1]; patients with DVT treated for 6 months, equimolar doses
  Safety (observed bleedings) compared with idraparinux: better safety with less observed bleedings
Patients with DVT [2]
  Putative odds ratio (OR) for major bleedings, idrabiotaparinux versus standard treatment: 0.249

## CO[C@H]1O[C@H](COS(=O)(=O)O)[C@@H](O[C@@H]2O[C@@H](C(=O)O)[C@@H](O[C@H]3O[C@H](COS(=O)(=O)O)[C@@H](O[C@@H]4O[C@H](C(=O)O)[C@@H](O[C@H]5O[C@H](COS(=O)(=O)O)[C@@H](OC)[C@H](OC)[C@H]5OC)[C@H](OC)[C@H]4OC)[C@H](OS(=O)(=O)O)[C@H]3OS(=O)(=O)O)[C@H](OC)[C@H]2OC)[C@H](OS(=O)(=O)O)[C@H]1OS(=O)(=O)O [Idraparinux, idraparinux]
Patients with DVT [3]
  Odds ratio for major bleedings, idraparinux versus standard treatment: 1.245
[1]; on-treatment period, at month 6
  Kaplan-Meier cumulative incidence of first bleeding (any bleeding), comparison of the two groups: higher than in the idrabiotaparinux group
[1]; all treated population
  Major bleeding, number of patients [n]: 14
  Any bleeding (clinically relevant major or non-major), % of patients: 7.3%
  Any bleeding (clinically relevant major or non-major), number of patients [n]: 27
  Major bleeding, % of patients (incidence): 3.8%
[1]; [5]
  Fatal bleeding: Gastrointestinal, number of patients [n]: 0
  Fatal bleeding: Intracranial, % of patients: 0.8%
  Fatal bleeding: Intracranial, number of patients [n]: 3
  Fatal bleeding: Other, number of patients [n]: 0
  Non-fatal bleeding associated with a fall in hemoglobin >=2 g/dL and/or leading to a transfusion >=2 units of blood, % of patients: 1.9%
  Non-fatal bleeding associated with a fall in hemoglobin >=2 g/dL and/or leading to a transfusion >=2 units of blood, number of patients [n]: 7
  Non-fatal bleeding into a critical organ: Intracranial, % of patients: 0.5%
  Non-fatal bleeding into a critical organ: Intracranial, number of patients [n]: 2
  Non-fatal bleeding into a critical organ: Other, number of patients [n]: 0
  Non-fatal bleeding into a critical organ: Pericardial, number of patients [n]: 0
  Non-fatal bleeding into a critical organ: Retroperitoneal, % of patients: 0.5%
  Non-fatal bleeding into a critical organ: Retroperitoneal, number of patients [n]: 2
[1]; major bleedings up to D182 by adjudication criterion, all treated population, listed as idraparinux
  Fatal bleeding: Intracranial, number of patients [n]: three
[1]; up to D182, all treated population
  Intracranial hemorrhages observed (fatal and non-fatal), number: five
Patients with DVT [4]
  Incidence of clinically relevant bleedings (any bleedings): 8.3%
  Rate of major bleedings: 1.9%
